Assay results reported in patent US20220265775A1, “COMPOSITIONS AND METHODS FOR TREATING PULMONARY EDEMA OR LUNG INFLAMMATION” (priority 2019, published 2022).

Legend:
[1] = system: myeloperoxidase (MPO) activity in lung tissue; assay: Myeloperoxidase (MPO) activity assay and MPO immunostaining of lung tissue of hyperoxia-exposed rats; format: in vivo, Sprague Dawley rats
Text: All experimental protocols for animal treatments were approved by the University of Minnesota Institutional Animal Care and Use Committee. […] The room-air control rats were kept in the University animal housing facility. At the end of hyperoxic exposure, rats were sacrificed by intraperitoneal pentobarbital injection, and the lungs were harvested; the right lobes were allocated for histopathology, measurement of lung tissue myeloperoxidase (MPO) activity and wet-to-dry weight ratio. The left lobes underwent bronchoalveolar lavage (BAL) to determine BAL protein concentrations and differential cell counts.
To quantify the neutrophil activity in the lung, MPO activity was assayed as previously described (Abraham et al., J Immunol 165:2950-2954, 2000). Lung tissues without prior lavage were frozen in liquid nitrogen, weighed, and stored at −86° C. The lungs were homogenized for 30 seconds in 1.5 ml 20 mM potassium phosphate, pH 7.4, and centrifuged at 4° C. for 30 minutes at 40,000×g. The pellet was resuspended in 1.5 ml 50 mM potassium phosphate, pH 6.0, containing 0.5% hexadecyltrimethylammonium bromide, sonicated for 90 seconds, incubated at 60° C. for two hours, and centrifuged at 14,000 rpm for 30 minutes at 4° C. The supernatant was assayed for peroxidase activity corrected to lung weight. MPO was expressed as activity per gram of lung tissue. […]

RLE-6TN cells = assay: RLE-6TN cell survival under hyperoxia and recovery, viable cells counted by trypan blue exclusion; format: cell-based, rat
Experimental: FIG. 7. […] The cells were cultured in DMEM/F12 with 10% FBS in 21% O2 and 5% CO2 overnight. […] The viable cells are counted immediately after 72-hour hyperoxia exposure. Cell viability is assessed with trypan blue. The amount of viable cells under specific conditions is presented as a percentage of the cell number from hyperoxia alone. Data are mean±s.d. of four independent experiments with *=P<0.05; **=P<0.01.
FIG. 8. […] In both (A) and (B), the number of viable cells under specific conditions is presented as a percentage of the cell number related to hyperoxia alone in the same experiment. Data are mean s.d. of four independent experiments with *=P<0.05; **=P<0.01.
FIG. 10. HO-1 upregulation is required for T3-increased RLE-6TN cell survival in hyperoxia. […] The cells were then collected for Western Blot analysis. (B) The cells were incubated in 21% O2 and 5% CO2 for 72 hours in the present of HO-1 inhibitor Tin Protoporphyrin IX (10^−6M). […] Cell viability is assessed with trypan blue. The number of viable cells under specific conditions is presented as a percentage of the cell number related to hyperoxia alone. Data are mean±s.d. of three independent experiments with *=P<0.05; **=P<0.01.
FIG. 11. PI3K inhibitor wortmannin blocked T3-induced cell survival in hyperoxia. […] Cell viability is assessed with trypan blue. The number of viable cells under specific conditions is presented as a percentage of the cell number related to hyperoxia alone. Data are mean±s.d. of four independent experiments with *=P<0.05; **=P<0.01.
At the end of the hyperoxia exposure period, the viable cells were counted by trypan blue dye exclusion.

SMILES: N[C@@H](Cc1cc(I)c(Oc2ccc(O)c(I)c2)c(I)c1)C(=O)O [T3, triiodothyronine]
- MPO-positive cells in the lungs (immunostaining) ([1]; T3-injected rats exposed to 95% oxygen for 60 hours vs hyperoxic lungs without T3): fewer MPO-positive cells
- lung MPO activity ([1]; rats, 60 hours of hyperoxia, T3 supplementation vs hyperoxia alone): significantly reduced the hyperoxia-induced MPO activity
- number of viable AT2 cells at 48 hours of recovery (RLE-6TN cells; 90% oxygen for 24 or 48 hours, compound present only during recovery in 21% O2): significantly increased the number of viable AT2 cells
- increase in number of surviving cells compared with hyperoxia control (RLE-6TN cells; 90% oxygen for 72 hours, 10^−6M): ~2.5 fold
- protective effect on viable AT2 cell number after recovery in room air (RLE-6TN cells; hyperoxia 72 hours with T3, then room air 72 hours with no supplemental T3): persisted and was of similar magnitude
